Here are results for 11 compounds from ChEMBL document CHEMBL1201862, “PubChem BioAssay data set” (2004).

The source made the active and inactive calls.

Assay [1] deals with FAD-linked sulfhydryl oxidase ALR (Homo sapiens, UniProt P55789). In words: inhibitors of human ALR sulfhydryl oxidase, dose response, biochemical, H2O2 detection, luminescence, cherry-pick (AID 493248).
In assay [2] the target is T1, Replicative DNA helicase DnaB (Mycobacterium tuberculosis, UniProt P9WMR3).
T1 sequence (P9WMR3 whole entry): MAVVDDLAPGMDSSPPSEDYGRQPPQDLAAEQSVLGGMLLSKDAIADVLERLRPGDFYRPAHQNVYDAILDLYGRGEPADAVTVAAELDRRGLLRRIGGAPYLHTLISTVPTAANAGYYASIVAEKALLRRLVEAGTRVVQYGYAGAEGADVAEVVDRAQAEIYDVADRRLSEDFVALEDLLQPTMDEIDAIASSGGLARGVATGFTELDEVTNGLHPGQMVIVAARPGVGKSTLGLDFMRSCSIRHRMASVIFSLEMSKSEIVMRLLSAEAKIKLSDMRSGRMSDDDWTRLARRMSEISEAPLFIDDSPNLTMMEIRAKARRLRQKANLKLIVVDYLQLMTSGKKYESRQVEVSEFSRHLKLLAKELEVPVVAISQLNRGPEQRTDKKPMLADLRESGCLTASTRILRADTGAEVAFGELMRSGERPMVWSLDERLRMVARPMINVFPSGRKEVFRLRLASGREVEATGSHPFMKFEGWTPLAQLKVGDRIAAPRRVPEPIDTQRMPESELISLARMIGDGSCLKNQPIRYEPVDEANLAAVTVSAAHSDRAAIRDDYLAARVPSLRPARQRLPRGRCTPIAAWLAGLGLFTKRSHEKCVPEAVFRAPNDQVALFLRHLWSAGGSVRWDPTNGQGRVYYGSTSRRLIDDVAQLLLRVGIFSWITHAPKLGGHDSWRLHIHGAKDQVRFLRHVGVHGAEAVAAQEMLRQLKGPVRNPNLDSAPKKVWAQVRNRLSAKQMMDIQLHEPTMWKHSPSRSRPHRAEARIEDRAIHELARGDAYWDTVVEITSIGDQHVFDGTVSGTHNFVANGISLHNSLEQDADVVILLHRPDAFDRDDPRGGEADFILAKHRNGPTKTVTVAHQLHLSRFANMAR
In words: DnaB intein splicing inhibitors, dose response, biochemical, cell-free fluorescence (AID 449749). It counts as functional.

In the next assay the target is T2, Protein RecA (Mycobacterium tuberculosis, UniProt P9WHJ3).
T2 sequence (P9WHJ3 whole entry): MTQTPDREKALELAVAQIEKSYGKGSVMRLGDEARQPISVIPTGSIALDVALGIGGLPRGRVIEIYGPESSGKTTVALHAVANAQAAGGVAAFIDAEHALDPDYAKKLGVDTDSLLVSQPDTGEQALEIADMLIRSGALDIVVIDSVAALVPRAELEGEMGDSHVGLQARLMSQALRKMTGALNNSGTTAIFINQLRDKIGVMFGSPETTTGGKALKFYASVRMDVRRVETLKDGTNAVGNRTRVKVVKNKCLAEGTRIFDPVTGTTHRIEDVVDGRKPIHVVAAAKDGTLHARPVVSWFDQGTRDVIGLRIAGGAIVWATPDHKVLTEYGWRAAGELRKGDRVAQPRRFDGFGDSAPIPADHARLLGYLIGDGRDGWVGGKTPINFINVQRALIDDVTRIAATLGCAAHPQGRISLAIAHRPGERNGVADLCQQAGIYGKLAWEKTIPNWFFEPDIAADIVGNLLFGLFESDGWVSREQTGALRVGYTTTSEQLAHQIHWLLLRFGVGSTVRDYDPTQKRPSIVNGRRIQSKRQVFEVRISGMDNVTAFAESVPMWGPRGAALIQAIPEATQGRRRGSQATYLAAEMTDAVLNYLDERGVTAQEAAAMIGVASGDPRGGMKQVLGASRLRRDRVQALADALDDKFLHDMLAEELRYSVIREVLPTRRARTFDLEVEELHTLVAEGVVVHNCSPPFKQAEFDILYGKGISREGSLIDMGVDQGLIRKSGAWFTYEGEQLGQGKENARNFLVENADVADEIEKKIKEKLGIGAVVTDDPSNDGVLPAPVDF
In words: Fluorescence Cell-Free Homogeneous Dose Retest to Identify Inhibitors of RecA-Intein Splicing Activity. [Related pubchem assays (depositor defined):AID2097, AID2223, AID489010, AID492950]. It counts as functional.

Assay [3] concerns the target ATP-binding cassette sub-family B member 6 (Homo sapiens, UniProt Q9NP58). In words: ABCB6 transporter inhibitors, dose response, K562-ABCB6 cells, flow cytometry, cherry pick 1 (AID 623955). The class given is functional. To be noted: read-out: EC50_MICROM. Background: Flow cytometry measures light scatter and fluorescence of single cells or particles in a stream.
Assay [4] addresses Tyrosine-protein phosphatase non-receptor type 11 (Homo sapiens, UniProt Q06124). Kind of assay: SHP2 phosphatase inhibition, dose response, selectivity assay for STEP inhibitor project, biochemical (AID 602367). The class given is functional. To be noted: read-out: IC50_Mean.
Assay [5] has as its target Tyrosine-protein phosphatase non-receptor type 5 (Homo sapiens, UniProt P54829). In words: STEP phosphatase inhibitors, confirmation, biochemical, fluorescence intensity, uHTS hits (AID 602372). The class given is functional. To be noted: read-out: IC50_Mean.
Assay [6] addresses Dual specificity protein phosphatase 3 (Homo sapiens, UniProt P51452). In words: VHR phosphatase inhibition, dose response, selectivity assay for STEP inhibitor project, biochemical (AID 602374). To be noted: read-out: IC50_Mean. The class given is functional.
Assay [7] can be described thus: Luminescence Cell-Based Dose Confirmation HTS to Identify Activators of 5'UTR Stem-Loop Driven Alpha-Synuclein mRNA Translation in H4 Neuroglioblastoma Cells. [Related pubchem assays: 1829 (Project Summary), 1814 (Primary HTS)]. It counts as functional.
A short description of assay [8]: Luminescence Cell-Based Dose Response HTS to Identify Activators of Luciferase Translation or Activity in H4 […] Cells. [Related pubchem assays: 1829 (Project Summary), 1814 (Primary HTS)]. It counts as functional.
A further assay relates to H4. Kind of assay: Luminescence Cell-Based Dose Response HTS to Identify Activators of 5'UTR Stem-Loop Driven Prion Protein mRNA Translation in H4 Neuroglioblastoma Cells. [Related pubchem assays: 1829 (Project Summary), 1814 (Primary HTS)]. It counts as functional. To be noted: Homo sapiens.
In assay [9] the target is Heat shock protein HSP 90-alpha (Homo sapiens, UniProt P07900). The class given is functional, organism-based.
The nature of assay [10]: Fluorescence-based cell-based high throughput dose response assay for inhibitors of the interaction of nucleotide-binding oligomerization domain containing 2 (NOD2) and the receptor-interacting serine-threonine kinase 2 (RIPK2). It counts as functional. To be noted: Homo sapiens.
The nature of assay [11]: inhibitors of PGC1a acetylation in cells, dose response, cell-based, cherry-picked samples (AID 720514).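 Also: potency may reflect raised or lowered acetylation signal.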 The class given is functional.
For assay [12], the target named is T3, Sentrin-specific protease 8 (Homo sapiens, UniProt Q96LD8).
T3 sequence (Q96LD8 whole entry): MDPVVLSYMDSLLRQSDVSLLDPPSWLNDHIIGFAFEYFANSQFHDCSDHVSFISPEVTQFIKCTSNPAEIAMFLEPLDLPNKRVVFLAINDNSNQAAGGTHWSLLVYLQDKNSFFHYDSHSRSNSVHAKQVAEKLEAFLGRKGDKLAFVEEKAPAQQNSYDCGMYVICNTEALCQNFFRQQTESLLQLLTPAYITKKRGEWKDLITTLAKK
The class given is functional.

The target in assay [13] is T3, Sentrin-specific protease 8. It counts as functional. The source holds these as a separate data set.
A further assay deals with Protein S100-A4 (Homo sapiens, UniProt P26447). In words: S100A4-myosin IIA binding inhibitor potency, dose response, biochemical, fluorescence polarization, cherry-picked hits (AID 687001). The class given is functional. For orientation: Polarisation of emitted light reports the rotation of a fluorescent probe.
A short description of the next assay: cells. The class given is functional, cell-based.
For assay [14], the target named is T4, Nuclear receptor subfamily 0 group B member 1 (Homo sapiens, UniProt P51843).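 Also: HEK293T cells transfected with SF-1 and DAX-1 plus StAR promoter luciferase reporter.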
T4 sequence (P51843 whole entry): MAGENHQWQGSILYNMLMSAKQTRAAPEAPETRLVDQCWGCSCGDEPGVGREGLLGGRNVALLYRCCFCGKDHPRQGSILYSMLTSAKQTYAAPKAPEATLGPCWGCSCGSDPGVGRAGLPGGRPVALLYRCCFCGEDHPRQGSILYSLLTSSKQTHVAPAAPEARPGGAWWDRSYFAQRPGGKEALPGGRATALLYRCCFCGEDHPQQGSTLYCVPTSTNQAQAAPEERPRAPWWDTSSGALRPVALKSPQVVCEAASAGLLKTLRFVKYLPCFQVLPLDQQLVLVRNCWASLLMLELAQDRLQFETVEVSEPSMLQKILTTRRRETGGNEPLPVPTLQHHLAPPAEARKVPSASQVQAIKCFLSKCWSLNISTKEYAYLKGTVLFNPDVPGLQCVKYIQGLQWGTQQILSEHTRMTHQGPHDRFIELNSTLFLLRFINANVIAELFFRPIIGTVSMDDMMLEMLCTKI
It counts as functional, cell-based.

Assay [15] has as its target Photoreceptor-specific nuclear receptor (Homo sapiens, UniProt Q9Y5X4). The class given is functional, cell-based.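 Also: CHO-S cells with Gal4-NCOR and VP16-NR2E3 two-hybrid luciferase reporter.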
The test system of a further assay is Vero. In words: Vero cell toxicity, dose response, cytotoxicity control, plate reader, cherry-pick samples (AID 687020). The class given is functional, cell-based. To be noted: Chlorocebus sabaeus.
In assay [16] the target is Potassium voltage-gated channel subfamily KQT member 2 (Rattus norvegicus, UniProt O88943). Kind of assay: KCNQ2 potassium channel inhibitors, dose response, cell-based, automated electrophysiology, set II, rat KCNQ2 (AID 588637). It counts as functional.
Assay [17] has as its target Hepatocyte nuclear factor 4-alpha (Homo sapiens, UniProt P41235). It counts as functional, cell-based.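 Also: biochemical luminescence-based dose-response counterscreen measuring inhibition of HNF4 dimerization, run alongside a screen for blockers of ABHD5–perilipin-5 interaction; split luciferase complementation of HNF4 fusion proteins in cell lysate measuring dimerization.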
Assay [18] has as its target Beta-lactamase (Salmonella choleraesuis (strain SC-B67), UniProt Q5J463). Kind of assay: Epi-absorbance-based counterscreen for selective VIM-2 inhibitors: dose response biochemical high throughput screening assay to identify inhibitors of TEM-1 serine-beta-lactamase. Background: The purpose of a counterscreen is to sort out artefacts and off-target activity.
Assay [19] addresses T5, Beta-lactamase (Pseudomonas aeruginosa, UniProt Q79MP6). Kind of assay: IMP-1 metallo-beta-lactamase inhibitors, dose response, selectivity assay for VIM-2 inhibitor project, biochemical, epi-absorbance (AID 1920).
The target of assay [20] is T6, Beta Lactamase (Pseudomonas aeruginosa, UniProt Q932Y6). In words: VIM-2 metallo-beta-lactamase inhibitor potency, dose response, biochemical, epi-absorbance readout, selective inhibitors (AID 1919).
Assay [21] deals with T5, Beta-lactamase. Kind of assay: […] counterscreen for selective VIM-2 inhibitors: dose response biochemical high throughput screening assay to identify inhibitors of IMP-1 metallo-beta-lactamase.
Assay [22] addresses T6, Beta Lactamase. In words: VIM-2 inhibitor FRET-based artefact check, dose response, artefact control for selective VIM-2 inhibitor project, biochemical, FRET readout, CCF2 substrate (AID 1926).
For assay [23], the target named is DNA dC->dU-editing enzyme APOBEC-3A (Homo sapiens, UniProt P31941). Kind of assay: APOBEC3A DNA deaminase inhibitors, dose response, biochemical (AID 504722). The class given is functional.
Assay [24] deals with DNA dC->dU-editing enzyme APOBEC-3G (Homo sapiens, UniProt Q9HC16). In words: Dose Response confirmation of small molecule APOBEC3G DNA Deaminase Inhibitors via a fluorescence-based single-stranded DNA deaminase assay. [Related pubchem assays (depositor defined):AID493012, AID493028]. It counts as functional.
The next assay has as its system HEK293. In words: inhibitors of LMP1-driven NF-kB reporter, dose response, cell-based, HEK293, luciferase, cherry-pick (AID 588343). The class given is functional. To be noted: Homo sapiens.

T5 sequence (Q79MP6 whole entry): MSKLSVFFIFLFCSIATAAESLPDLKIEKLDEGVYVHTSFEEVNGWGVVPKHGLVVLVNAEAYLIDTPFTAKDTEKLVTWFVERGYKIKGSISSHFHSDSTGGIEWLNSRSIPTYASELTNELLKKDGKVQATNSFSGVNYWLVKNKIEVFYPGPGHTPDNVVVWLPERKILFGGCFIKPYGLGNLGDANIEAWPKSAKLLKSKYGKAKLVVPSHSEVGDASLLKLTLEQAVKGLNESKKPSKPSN
T6 sequence (Q932Y6 whole entry): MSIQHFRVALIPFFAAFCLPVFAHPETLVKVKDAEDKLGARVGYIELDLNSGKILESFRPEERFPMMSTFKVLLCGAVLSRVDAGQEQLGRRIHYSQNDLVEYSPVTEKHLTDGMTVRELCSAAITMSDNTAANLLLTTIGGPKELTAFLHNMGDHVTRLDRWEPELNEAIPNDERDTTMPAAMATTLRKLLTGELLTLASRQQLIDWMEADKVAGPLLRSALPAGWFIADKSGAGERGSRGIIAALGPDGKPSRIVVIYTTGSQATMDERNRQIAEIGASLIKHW
Photoreceptor-specific nuclear receptor, sequence (Q9Y5X4 whole entry, the tested form may be a part): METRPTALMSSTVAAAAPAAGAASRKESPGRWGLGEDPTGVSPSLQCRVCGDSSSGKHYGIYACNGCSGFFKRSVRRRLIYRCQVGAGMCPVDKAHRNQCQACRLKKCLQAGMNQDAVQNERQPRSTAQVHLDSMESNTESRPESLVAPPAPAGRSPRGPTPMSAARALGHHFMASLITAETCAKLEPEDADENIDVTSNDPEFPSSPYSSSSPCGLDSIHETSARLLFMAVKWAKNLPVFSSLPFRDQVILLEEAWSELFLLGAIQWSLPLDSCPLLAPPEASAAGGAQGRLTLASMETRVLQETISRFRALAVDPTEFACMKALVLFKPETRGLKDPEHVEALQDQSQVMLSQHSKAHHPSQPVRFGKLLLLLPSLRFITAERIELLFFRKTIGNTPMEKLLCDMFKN
Protein S100-A4, sequence (P26447 whole entry): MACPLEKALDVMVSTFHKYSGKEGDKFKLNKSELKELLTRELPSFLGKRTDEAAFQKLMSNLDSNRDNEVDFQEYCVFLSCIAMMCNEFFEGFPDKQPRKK
Tyrosine-protein phosphatase non-receptor type 11, sequence (Q06124 whole entry): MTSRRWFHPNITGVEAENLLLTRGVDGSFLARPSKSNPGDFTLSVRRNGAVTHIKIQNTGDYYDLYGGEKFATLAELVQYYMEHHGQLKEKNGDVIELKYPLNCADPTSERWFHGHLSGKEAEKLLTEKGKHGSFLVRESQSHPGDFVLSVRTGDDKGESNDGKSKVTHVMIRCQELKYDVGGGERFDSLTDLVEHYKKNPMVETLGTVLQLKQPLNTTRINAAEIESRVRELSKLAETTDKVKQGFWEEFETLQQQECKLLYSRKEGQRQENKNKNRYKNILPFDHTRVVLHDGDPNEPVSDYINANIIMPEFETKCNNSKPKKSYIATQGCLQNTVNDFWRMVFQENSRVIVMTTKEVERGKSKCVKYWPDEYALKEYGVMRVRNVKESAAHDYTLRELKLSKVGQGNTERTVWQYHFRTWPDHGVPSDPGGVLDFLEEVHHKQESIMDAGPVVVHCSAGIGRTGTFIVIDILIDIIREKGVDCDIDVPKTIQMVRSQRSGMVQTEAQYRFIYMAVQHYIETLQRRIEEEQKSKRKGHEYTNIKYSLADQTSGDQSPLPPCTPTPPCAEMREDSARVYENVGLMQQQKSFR
DNA dC->dU-editing enzyme APOBEC-3A, sequence (P31941 whole entry): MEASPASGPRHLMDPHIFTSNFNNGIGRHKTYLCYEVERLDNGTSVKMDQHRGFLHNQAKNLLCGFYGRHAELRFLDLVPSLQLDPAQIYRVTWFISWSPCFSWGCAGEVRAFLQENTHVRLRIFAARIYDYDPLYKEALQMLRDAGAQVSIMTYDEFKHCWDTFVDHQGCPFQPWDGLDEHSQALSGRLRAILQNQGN
Tyrosine-protein phosphatase non-receptor type 5, sequence (P54829 whole entry): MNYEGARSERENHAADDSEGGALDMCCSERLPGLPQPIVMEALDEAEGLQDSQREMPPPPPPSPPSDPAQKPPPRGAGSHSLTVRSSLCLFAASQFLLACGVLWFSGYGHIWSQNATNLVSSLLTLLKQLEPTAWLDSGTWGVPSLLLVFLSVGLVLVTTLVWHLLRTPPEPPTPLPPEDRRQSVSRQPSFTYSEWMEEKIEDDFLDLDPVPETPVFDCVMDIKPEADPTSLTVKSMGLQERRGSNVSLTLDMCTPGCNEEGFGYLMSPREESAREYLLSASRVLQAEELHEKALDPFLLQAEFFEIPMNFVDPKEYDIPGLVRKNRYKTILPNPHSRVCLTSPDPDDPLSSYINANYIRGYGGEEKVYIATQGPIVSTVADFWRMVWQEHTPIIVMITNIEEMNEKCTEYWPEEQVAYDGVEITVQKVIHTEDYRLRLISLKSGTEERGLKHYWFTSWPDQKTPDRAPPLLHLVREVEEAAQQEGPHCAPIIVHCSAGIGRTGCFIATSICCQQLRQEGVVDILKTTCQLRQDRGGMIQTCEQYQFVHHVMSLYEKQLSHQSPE
DNA dC->dU-editing enzyme APOBEC-3G, sequence (Q9HC16 whole entry): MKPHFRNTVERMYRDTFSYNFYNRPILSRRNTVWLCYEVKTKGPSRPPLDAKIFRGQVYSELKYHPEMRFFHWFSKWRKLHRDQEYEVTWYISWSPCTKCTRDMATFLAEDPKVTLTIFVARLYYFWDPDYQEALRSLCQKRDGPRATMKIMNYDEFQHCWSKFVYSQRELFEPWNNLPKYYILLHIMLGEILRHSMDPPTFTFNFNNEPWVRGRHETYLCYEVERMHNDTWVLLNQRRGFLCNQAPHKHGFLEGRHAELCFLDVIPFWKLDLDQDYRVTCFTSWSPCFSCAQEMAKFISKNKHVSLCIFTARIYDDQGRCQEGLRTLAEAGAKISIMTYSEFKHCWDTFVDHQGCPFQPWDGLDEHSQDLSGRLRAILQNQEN
Hepatocyte nuclear factor 4-alpha, sequence (P41235 whole entry, the tested form may be a part): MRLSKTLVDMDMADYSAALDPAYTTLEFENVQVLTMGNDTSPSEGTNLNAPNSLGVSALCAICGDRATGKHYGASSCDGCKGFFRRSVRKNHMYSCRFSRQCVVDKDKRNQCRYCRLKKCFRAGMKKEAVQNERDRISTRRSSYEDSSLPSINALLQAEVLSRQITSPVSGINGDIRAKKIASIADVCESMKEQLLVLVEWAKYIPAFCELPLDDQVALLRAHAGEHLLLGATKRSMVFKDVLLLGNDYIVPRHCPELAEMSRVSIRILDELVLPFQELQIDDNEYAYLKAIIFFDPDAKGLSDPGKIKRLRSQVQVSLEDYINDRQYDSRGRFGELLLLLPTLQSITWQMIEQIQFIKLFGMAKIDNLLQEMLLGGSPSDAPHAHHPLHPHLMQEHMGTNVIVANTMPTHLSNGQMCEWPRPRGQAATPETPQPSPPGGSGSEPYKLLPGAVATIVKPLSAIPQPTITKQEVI
Beta-lactamase (Salmonella choleraesuis (strain SC-B67), UniProt Q5J463), sequence (Q5J463 whole entry): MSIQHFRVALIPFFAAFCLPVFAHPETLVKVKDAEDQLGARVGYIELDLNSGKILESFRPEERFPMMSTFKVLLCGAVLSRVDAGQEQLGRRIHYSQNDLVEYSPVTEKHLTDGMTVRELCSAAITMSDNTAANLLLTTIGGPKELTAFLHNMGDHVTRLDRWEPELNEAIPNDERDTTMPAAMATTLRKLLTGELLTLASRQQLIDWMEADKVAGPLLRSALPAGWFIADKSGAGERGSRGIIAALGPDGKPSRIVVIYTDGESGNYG
Potassium voltage-gated channel subfamily KQT member 2, sequence (O88943 whole entry, the tested form may be a part): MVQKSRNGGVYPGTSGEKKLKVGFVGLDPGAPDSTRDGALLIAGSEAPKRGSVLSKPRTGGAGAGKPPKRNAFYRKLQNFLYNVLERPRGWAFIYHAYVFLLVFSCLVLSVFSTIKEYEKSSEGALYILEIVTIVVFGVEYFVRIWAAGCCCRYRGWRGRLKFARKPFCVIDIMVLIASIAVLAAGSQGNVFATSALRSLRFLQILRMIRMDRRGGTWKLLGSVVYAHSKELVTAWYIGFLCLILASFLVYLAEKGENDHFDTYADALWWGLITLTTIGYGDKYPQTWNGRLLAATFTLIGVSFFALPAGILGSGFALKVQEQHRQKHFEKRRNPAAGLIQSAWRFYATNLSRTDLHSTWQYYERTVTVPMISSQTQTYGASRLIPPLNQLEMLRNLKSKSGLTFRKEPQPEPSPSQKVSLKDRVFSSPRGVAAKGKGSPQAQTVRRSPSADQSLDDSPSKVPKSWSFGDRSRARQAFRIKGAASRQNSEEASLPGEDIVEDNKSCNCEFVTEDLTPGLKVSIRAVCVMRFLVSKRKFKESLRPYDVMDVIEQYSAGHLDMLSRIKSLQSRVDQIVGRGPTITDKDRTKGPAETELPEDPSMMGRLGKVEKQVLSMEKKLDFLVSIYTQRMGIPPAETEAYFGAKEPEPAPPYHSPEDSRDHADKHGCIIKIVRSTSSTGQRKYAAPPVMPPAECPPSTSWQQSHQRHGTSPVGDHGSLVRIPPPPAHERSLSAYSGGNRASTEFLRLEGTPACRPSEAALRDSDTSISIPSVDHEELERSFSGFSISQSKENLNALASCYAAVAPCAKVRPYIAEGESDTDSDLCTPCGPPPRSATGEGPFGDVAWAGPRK
FAD-linked sulfhydryl oxidase ALR, sequence (P55789 whole entry): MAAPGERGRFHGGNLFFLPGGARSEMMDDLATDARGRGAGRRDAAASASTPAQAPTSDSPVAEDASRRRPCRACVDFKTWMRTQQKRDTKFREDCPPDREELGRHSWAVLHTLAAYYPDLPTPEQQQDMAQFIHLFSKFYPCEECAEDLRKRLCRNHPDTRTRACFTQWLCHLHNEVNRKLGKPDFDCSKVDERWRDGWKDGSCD
Dual specificity protein phosphatase 3, sequence (P51452 whole entry): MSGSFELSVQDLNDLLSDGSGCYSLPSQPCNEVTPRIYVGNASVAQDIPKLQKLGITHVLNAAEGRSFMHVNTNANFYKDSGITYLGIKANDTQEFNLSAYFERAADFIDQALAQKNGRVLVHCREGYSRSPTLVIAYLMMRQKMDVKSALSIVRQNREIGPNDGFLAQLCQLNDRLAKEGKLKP

As a reminder, the AC50 is the midpoint of the concentration-response curve, whichever way the signal moves. `Cc1cccc(CS(=O)(=O)c2ncc(Cl)c(C(=O)Nc3c(C)cccc3C)n2)c1`: the AC50 in [1] is 164 nM (active); in assay [2] it was 4.28 µM (active). In addition, the EC50 was 4.66 µM (active) at Protein RecA and 74.5 µM (active) in [3].

As to `O=C(NC1CCCCCC1)C(=S)NC1CCCCC1`, the IC50 in [4] is 9.88 µM (active); in assay [5], 56.9 µM (inactive); in assay [6] it was 3.07 µM (active).

Take `O=c1oc(-c2ccccc2)cc(Cl)c1Cl`: the EC50 is > 120 µM (not active) in assay [7], > 120 µM (not active) in assay [8], > 60 µM (not active) with H4 and 4.74 µM (active) on Protein RecA. Further, the half-maximal activity concentration (AC50) in [2] was 10.5 µM (active); in assay [9] it was 2.64 µM (active); in [11], 11.2 µM (active). In assay [10], the IC50 is 1.15 µM (active).

As to `COC(=O)CCCC1=CC2=CC(=O)C(C)(OC(=O)c3cccs3)C(=O)C2=CN1C1CCCC1` (configuration not stated), the IC50 is 7.97 µM (active) in assay [12] and 5.99 µM (active) in [13].

In the case of `Cc1cc(C)c(S(=O)(=O)NCc2ccc3c(c2)cc(C)n3C)c(C)c1`, the AC50 on Protein S100-A4 was 10.7 µM (active).

On to `COc1ccccc1NS(=O)(=O)c1cc(NC(=O)c2ccc(NC(C)=O)cc2)ccc1N1CCOCC1`, for which the IC50 (in “cells”; in assay [14]) was > 67.5 µM (inactive) each time.

Consider `CCOC(=O)N1CCN(C(=O)c2ccc(S(=O)(=O)Nc3ccc(C)cc3)cc2)CC1`, for which the IC50 in [15] is 5.96 µM (active).

For the compound `COc1ccc(C)cc1N(CC(=O)Nc1ccc(S(=O)(=O)N2CCOCC2)cc1)S(C)(=O)=O`, the AC50 in the assay on Vero was 29.5 µM (active).

Consider `CCc1nc2ccc(F)cc2c(C(=O)NC2CCCCC2C)c1C` (configuration not stated), for which, in [16], the IC50 is 636 nM (active).

Consider `CC(C)(C)NC(=O)C(c1ccc(-c2ccccc2)cc1)n1c(=O)c(-c2ccco2)nc2ccccc21` (configuration not stated), for which, in [17], the IC50 is 1.91 µM (active).

Turning to `CC(=C/c1ccccc1)/C=N/n1c(S)nnc1-c1ccncc1`, the IC50 was > 59.6 µM (inactive) on Beta-lactamase [18]; > 59.6 µM (inactive) at Beta-lactamase [19]; > 59.6 µM (inactive) on Beta Lactamase [20]; > 59.6 µM (inactive) on Beta-lactamase [21]; 3.26 µM (active) on Beta Lactamase [22]; > 100 µM (inactive) in assay [23]. Also, the IC50 in [24] was 2.33 µM (active). The AC50 with HEK293 was 5.9 µM (active).
